{"source": "paper PMC10817531", "about": "“Chlorinated Enyne Fatty Acid Amides from a Marine Cyanobacterium: Discovery of Taveuniamides L-M and Pharmacological Characterization of Taveuniamide F as a GPCR Antagonist with CNR1 Selectivity” (Marine Drugs, 2023)", "assay_in_all_cases": "PathHunter β-arrestin GpcrMAX assay", "type_in_all_cases": "cell-based", "key": {"CCR10": {"target": "T1, CCR10 (Homo sapiens, UniProt P46092)", "T1 construct": "purchased DiscoveRx (Eurofins) gpcrMAX PathHunter β-arrestin panel", "T1 sequence (P46092 whole entry, the tested form may be a part)": "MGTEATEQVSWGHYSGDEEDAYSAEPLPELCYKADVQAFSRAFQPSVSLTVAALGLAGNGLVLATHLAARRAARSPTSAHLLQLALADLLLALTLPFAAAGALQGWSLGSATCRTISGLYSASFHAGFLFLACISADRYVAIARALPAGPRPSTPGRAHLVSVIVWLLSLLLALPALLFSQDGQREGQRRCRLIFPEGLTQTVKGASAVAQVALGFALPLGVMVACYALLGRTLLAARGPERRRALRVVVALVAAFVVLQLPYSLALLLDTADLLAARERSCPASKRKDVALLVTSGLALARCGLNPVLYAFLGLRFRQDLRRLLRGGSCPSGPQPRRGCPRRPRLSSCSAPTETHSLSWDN", "procedure": "(§1) GpcrMAX panel biosensor assays were used to characterize taveuniamide F (4, 20 µM) (agonist and antagonist mode). The experiments were carried out by DiscoveRx Corporation (Fremont, CA, USA) as described before, using PathHunter β-arrestin enzyme fragment complementation (EFC) technology."}, "PTHR2": {"target": "T2, PTHR2 (Homo sapiens, UniProt P49190)", "T2 construct": "purchased DiscoveRx (Eurofins) gpcrMAX PathHunter β-arrestin panel", "procedure": "as §1"}, "EDNRA": {"target": "T3, EDNRA (Homo sapiens, UniProt P25101)", "T3 construct": "purchased DiscoveRx (Eurofins) gpcrMAX PathHunter β-arrestin panel", "procedure": "as §1"}, "HTR1F": {"target": "T4, HTR1F (Homo sapiens, UniProt P30939)", "T4 construct": "purchased DiscoveRx (Eurofins) gpcrMAX PathHunter β-arrestin panel", "procedure": "as §1"}, "OPRL1": {"target": "T5, OPRL1 (Homo sapiens, UniProt P41146)", "T5 construct": "purchased DiscoveRx (Eurofins) gpcrMAX PathHunter β-arrestin panel", "procedure": "as §1"}, "GPR109B": {"target": "T6, GPR109B (Homo sapiens, UniProt P49019)", "T6 construct": "purchased DiscoveRx (Eurofins) gpcrMAX PathHunter β-arrestin panel", "procedure": "as §1"}, "CCR3": {"target": "T7, CCR3 (Homo sapiens, UniProt P51677)", "T7 construct": "purchased DiscoveRx (Eurofins) gpcrMAX PathHunter β-arrestin panel", "procedure": "as §1"}, "CCR8": {"target": "T8, CCR8 (Homo sapiens, UniProt P51685)", "T8 construct": "purchased DiscoveRx (Eurofins) gpcrMAX PathHunter β-arrestin panel", "procedure": "as §1"}, "NPFFR1": {"target": "T9, NPFFR1 (Homo sapiens, UniProt Q9GZQ6)", "T9 construct": "purchased DiscoveRx (Eurofins) gpcrMAX PathHunter β-arrestin panel", "T9 sequence (Q9GZQ6 whole entry)": "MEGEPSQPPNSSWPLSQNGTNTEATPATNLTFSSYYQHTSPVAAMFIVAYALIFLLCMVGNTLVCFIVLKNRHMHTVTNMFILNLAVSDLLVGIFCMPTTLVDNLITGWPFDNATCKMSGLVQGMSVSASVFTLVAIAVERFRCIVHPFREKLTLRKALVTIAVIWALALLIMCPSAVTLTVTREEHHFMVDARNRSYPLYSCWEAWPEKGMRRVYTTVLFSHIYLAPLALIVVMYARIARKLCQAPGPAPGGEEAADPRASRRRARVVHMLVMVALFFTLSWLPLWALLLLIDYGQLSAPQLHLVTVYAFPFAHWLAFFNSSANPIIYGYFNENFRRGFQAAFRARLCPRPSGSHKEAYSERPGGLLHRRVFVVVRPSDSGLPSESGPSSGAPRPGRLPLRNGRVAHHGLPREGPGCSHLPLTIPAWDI", "procedure": "as §1"}, "GPR109A": {"target": "T10, GPR109A (Homo sapiens, UniProt Q8TDS4)", "T10 construct": "purchased DiscoveRx (Eurofins) gpcrMAX PathHunter β-arrestin panel", "T10 sequence (Q8TDS4 whole entry)": "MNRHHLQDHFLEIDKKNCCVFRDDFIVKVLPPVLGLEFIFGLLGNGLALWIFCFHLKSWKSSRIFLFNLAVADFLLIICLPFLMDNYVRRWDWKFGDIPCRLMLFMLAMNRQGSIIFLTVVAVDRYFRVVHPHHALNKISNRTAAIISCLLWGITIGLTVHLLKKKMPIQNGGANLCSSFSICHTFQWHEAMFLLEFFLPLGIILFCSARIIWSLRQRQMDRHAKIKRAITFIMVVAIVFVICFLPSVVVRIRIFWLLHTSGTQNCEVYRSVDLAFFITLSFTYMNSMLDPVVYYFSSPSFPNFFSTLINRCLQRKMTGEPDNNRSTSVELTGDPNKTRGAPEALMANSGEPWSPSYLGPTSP", "procedure": "as §1"}, "MTNR1A": {"target": "T11, MTNR1A (Homo sapiens, UniProt P48039)", "T11 construct": "purchased DiscoveRx (Eurofins) gpcrMAX PathHunter β-arrestin panel", "procedure": "as §1"}, "LTB4R": {"target": "T12, LTB4R (Homo sapiens, UniProt Q15722)", "T12 construct": "purchased DiscoveRx (Eurofins) gpcrMAX PathHunter β-arrestin panel", "procedure": "as §1"}, "MC3R": {"target": "T13, MC3R (Homo sapiens, UniProt P41968)", "T13 construct": "purchased DiscoveRx (Eurofins) gpcrMAX PathHunter β-arrestin panel", "T13 sequence (P41968 whole entry)": "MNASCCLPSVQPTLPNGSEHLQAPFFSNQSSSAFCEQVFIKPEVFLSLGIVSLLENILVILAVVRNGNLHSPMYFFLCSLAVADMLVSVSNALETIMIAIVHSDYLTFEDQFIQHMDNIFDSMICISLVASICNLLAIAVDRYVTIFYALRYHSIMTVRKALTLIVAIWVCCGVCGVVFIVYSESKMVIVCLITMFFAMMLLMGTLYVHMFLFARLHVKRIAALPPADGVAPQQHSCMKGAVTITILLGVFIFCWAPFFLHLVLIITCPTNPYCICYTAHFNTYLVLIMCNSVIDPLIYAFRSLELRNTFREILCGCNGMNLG", "procedure": "as §1"}, "CHRM1": {"target": "T14, CHRM1 (Homo sapiens, UniProt P11229)", "T14 construct": "purchased DiscoveRx (Eurofins) gpcrMAX PathHunter β-arrestin panel", "procedure": "as §1"}, "C5aR1": {"target": "C5aR1 (Homo sapiens, UniProt P21730)", "procedure": "as §1"}, "CHRM3": {"target": "T15, CHRM3 (Homo sapiens, UniProt P20309)", "T15 construct": "purchased DiscoveRx (Eurofins) gpcrMAX PathHunter β-arrestin panel", "procedure": "as §1"}, "EDG7": {"target": "T16, EDG7 (Homo sapiens, UniProt Q9UBY5)", "T16 construct": "purchased DiscoveRx (Eurofins) gpcrMAX PathHunter β-arrestin panel", "procedure": "as §1"}, "P2RY1": {"target": "T17, P2RY1 (Homo sapiens, UniProt P47900)", "T17 construct": "purchased DiscoveRx (Eurofins) gpcrMAX PathHunter β-arrestin panel", "procedure": "as §1"}, "TRHR": {"target": "T18, TRHR (Homo sapiens, UniProt P34981)", "T18 construct": "purchased DiscoveRx (Eurofins) gpcrMAX PathHunter β-arrestin panel", "procedure": "as §1"}, "LHCGR": {"target": "T19, LHCGR (Homo sapiens, UniProt P22888)", "T19 construct": "purchased DiscoveRx (Eurofins) gpcrMAX PathHunter β-arrestin panel", "procedure": "as §1"}, "GIPR": {"target": "T20, GIPR (Homo sapiens, UniProt P48546)", "T20 construct": "purchased DiscoveRx (Eurofins) gpcrMAX PathHunter β-arrestin panel", "procedure": "as §1"}, "HRH2": {"target": "T21, HRH2 (Homo sapiens, UniProt P25021)", "T21 construct": "purchased DiscoveRx (Eurofins) gpcrMAX PathHunter β-arrestin panel", "procedure": "as §1"}, "CRTH2": {"target": "T22, CRTH2 (Homo sapiens, UniProt Q9Y5Y4)", "T22 construct": "purchased DiscoveRx (Eurofins) gpcrMAX PathHunter β-arrestin panel", "procedure": "as §1"}, "RXFP3": {"target": "T23, RXFP3 (Homo sapiens, UniProt Q9NSD7)", "T23 construct": "purchased DiscoveRx (Eurofins) gpcrMAX PathHunter β-arrestin panel", "procedure": "as §1"}, "GLP2R": {"target": "T24, GLP2R (Homo sapiens, UniProt O95838)", "T24 construct": "purchased DiscoveRx (Eurofins) gpcrMAX PathHunter β-arrestin panel", "T24 sequence (O95838 whole entry)": "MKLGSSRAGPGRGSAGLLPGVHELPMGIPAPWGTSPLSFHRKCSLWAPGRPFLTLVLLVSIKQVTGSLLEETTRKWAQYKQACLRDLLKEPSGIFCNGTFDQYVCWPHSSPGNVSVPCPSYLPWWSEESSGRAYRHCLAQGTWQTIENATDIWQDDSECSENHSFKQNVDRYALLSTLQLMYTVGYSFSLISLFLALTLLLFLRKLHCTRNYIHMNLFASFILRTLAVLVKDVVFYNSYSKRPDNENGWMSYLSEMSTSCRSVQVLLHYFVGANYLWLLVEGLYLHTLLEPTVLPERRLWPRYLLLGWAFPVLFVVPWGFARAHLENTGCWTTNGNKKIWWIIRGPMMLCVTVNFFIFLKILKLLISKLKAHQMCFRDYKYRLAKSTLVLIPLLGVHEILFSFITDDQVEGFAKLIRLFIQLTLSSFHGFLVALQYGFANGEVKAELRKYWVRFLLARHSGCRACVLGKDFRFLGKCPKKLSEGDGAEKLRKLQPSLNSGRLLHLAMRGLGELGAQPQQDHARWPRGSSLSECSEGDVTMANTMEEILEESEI", "procedure": "as §1"}, "HTR1E": {"target": "T25, HTR1E (Homo sapiens, UniProt P28566)", "T25 construct": "purchased DiscoveRx (Eurofins) gpcrMAX PathHunter β-arrestin panel", "procedure": "as §1"}, "SSTR1": {"target": "T26, SSTR1 (Homo sapiens, UniProt P30872)", "T26 construct": "purchased DiscoveRx (Eurofins) gpcrMAX PathHunter β-arrestin panel", "T26 sequence (P30872 whole entry)": "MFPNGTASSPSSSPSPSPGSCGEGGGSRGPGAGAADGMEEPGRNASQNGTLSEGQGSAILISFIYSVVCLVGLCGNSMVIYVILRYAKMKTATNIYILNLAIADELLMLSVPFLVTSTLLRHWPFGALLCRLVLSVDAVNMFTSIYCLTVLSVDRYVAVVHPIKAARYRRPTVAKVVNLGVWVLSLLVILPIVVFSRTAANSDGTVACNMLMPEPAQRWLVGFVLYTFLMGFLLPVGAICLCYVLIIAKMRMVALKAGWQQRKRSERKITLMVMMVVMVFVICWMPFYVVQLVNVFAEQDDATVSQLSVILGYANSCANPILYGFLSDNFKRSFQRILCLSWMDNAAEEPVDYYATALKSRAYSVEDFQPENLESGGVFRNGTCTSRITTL", "procedure": "as §1"}, "EDNRB": {"target": "T27, EDNRB (Homo sapiens, UniProt P24530)", "T27 construct": "purchased DiscoveRx (Eurofins) gpcrMAX PathHunter β-arrestin panel", "T27 sequence (P24530 27-442)": "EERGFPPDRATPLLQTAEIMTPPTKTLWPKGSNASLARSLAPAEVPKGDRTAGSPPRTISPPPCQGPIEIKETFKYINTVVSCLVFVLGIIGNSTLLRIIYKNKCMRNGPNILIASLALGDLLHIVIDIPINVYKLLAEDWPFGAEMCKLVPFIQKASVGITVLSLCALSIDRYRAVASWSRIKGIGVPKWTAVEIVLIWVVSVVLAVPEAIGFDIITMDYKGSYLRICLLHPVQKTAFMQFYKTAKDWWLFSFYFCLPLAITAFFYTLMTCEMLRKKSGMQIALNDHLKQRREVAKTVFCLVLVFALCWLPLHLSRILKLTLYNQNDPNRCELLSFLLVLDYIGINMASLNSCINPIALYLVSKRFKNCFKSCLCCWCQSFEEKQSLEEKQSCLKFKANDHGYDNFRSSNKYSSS", "procedure": "as §1"}, "ADRB1": {"target": "T28, ADRB1 (Homo sapiens, UniProt P08588)", "T28 construct": "purchased DiscoveRx (Eurofins) gpcrMAX PathHunter β-arrestin panel", "procedure": "as §1"}, "NTSR1": {"target": "T29, NTSR1 (Homo sapiens, UniProt P30989)", "T29 construct": "purchased DiscoveRx (Eurofins) gpcrMAX PathHunter β-arrestin panel", "procedure": "as §1"}, "DRD5": {"target": "T30, DRD5 (Homo sapiens, UniProt P21918)", "T30 construct": "purchased DiscoveRx (Eurofins) gpcrMAX PathHunter β-arrestin panel", "T30 sequence (P21918 whole entry)": "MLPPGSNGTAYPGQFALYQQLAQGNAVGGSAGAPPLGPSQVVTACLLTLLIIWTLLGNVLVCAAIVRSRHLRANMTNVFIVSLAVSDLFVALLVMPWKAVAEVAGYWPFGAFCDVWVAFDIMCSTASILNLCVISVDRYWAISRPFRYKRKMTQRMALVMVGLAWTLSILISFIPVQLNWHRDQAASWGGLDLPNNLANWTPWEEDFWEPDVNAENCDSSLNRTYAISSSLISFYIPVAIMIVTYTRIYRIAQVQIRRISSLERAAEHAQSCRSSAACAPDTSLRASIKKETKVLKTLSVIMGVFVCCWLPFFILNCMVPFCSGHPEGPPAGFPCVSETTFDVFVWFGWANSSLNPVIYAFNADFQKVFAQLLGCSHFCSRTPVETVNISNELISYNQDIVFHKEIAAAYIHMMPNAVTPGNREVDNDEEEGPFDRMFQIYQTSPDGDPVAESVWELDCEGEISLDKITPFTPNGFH", "procedure": "as §1"}, "CRHR2": {"target": "T31, CRHR2 (Homo sapiens, UniProt Q13324)", "T31 construct": "purchased DiscoveRx (Eurofins) gpcrMAX PathHunter β-arrestin panel", "procedure": "as §1"}, "CXCR2": {"target": "T32, CXCR2 (Homo sapiens, UniProt P25025)", "T32 construct": "purchased DiscoveRx (Eurofins) gpcrMAX PathHunter β-arrestin panel", "procedure": "as §1"}, "HCRTR1": {"target": "T33, HCRTR1 (Homo sapiens, UniProt O43613)", "T33 construct": "purchased DiscoveRx (Eurofins) gpcrMAX PathHunter β-arrestin panel", "procedure": "as §1"}, "CCR5": {"target": "T34, CCR5 (Homo sapiens, UniProt P51681)", "T34 construct": "purchased DiscoveRx (Eurofins) gpcrMAX PathHunter β-arrestin panel", "procedure": "as §1"}, "MCHR2": {"target": "T35, MCHR2 (Homo sapiens, UniProt Q969V1)", "T35 construct": "purchased DiscoveRx (Eurofins) gpcrMAX PathHunter β-arrestin panel", "T35 sequence (Q969V1 whole entry)": "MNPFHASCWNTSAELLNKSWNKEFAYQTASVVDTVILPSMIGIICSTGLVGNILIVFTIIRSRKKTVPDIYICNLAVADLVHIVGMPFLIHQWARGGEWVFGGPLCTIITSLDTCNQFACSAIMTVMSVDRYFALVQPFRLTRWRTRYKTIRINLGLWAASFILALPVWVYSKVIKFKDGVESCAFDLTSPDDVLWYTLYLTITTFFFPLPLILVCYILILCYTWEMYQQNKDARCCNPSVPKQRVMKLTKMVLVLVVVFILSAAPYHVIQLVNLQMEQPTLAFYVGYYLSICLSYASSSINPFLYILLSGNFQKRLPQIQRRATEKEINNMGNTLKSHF", "procedure": "as §1"}, "PTGER4": {"target": "T36, PTGER4 (Homo sapiens, UniProt P35408)", "T36 construct": "purchased DiscoveRx (Eurofins) gpcrMAX PathHunter β-arrestin panel", "T36 sequence (P35408 whole entry)": "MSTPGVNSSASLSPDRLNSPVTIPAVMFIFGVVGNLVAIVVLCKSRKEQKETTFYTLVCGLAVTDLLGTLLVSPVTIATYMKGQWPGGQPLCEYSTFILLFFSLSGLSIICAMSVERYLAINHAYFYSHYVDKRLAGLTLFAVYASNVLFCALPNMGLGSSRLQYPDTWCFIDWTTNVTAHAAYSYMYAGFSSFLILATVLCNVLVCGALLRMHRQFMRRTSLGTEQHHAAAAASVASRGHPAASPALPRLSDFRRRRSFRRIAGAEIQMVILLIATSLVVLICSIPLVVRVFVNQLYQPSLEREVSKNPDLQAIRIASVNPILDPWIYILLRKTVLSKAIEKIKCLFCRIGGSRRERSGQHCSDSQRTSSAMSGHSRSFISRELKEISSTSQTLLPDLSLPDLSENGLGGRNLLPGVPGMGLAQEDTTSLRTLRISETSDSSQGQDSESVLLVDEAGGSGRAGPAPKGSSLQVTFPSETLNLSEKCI", "procedure": "as §1"}, "GHSR": {"target": "T37, GHSR (Homo sapiens, UniProt Q92847)", "T37 construct": "purchased DiscoveRx (Eurofins) gpcrMAX PathHunter β-arrestin panel", "procedure": "as §1"}, "GPR92": {"target": "T38, GPR92 (Homo sapiens, UniProt Q9H1C0)", "T38 construct": "purchased DiscoveRx (Eurofins) gpcrMAX PathHunter β-arrestin panel", "procedure": "as §1"}, "CCR1": {"target": "T39, CCR1 (Homo sapiens, UniProt P32246)", "T39 construct": "purchased DiscoveRx (Eurofins) gpcrMAX PathHunter β-arrestin panel", "procedure": "as §1"}, "CALCRL-RAMP3": {"target": "CALCRL-RAMP3 (Homo sapiens, UniProt O60896+Q16602)", "sequence (Q16602 23-461)": "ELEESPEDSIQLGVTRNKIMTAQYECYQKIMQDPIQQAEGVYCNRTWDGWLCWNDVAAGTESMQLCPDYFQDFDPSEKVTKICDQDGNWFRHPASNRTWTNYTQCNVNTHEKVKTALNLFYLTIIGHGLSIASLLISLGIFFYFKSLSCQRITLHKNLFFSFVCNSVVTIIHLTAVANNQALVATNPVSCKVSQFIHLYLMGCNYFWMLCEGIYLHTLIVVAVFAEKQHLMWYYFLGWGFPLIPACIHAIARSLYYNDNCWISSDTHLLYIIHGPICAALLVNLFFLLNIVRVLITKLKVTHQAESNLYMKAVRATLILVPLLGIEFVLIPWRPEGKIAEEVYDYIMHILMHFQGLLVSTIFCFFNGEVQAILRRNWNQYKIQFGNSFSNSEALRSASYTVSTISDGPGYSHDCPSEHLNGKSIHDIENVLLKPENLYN", "sequence (O60896 24-148 partner)": "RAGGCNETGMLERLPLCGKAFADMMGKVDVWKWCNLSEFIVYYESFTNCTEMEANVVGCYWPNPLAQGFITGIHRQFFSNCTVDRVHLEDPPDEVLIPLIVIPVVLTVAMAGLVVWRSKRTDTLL", "procedure": "as §1"}, "CALCR-RAMP2": {"target": "CALCR-RAMP2 (Homo sapiens, UniProt O60895+P30988)", "procedure": "as §1"}, "PTAFR": {"target": "T40, PTAFR (Homo sapiens, UniProt P25105)", "T40 construct": "purchased DiscoveRx (Eurofins) gpcrMAX PathHunter β-arrestin panel", "procedure": "as §1"}}, "data": [{"compound": "CC(=O)N[C@@H](CCCC#C/C=C/Cl)CCCCCCC(Cl)Cl", "note": "[Compound 4, taveuniamide F]", "values": [{"measurement": "inhibition at 20 µM", "setting": "CCR10", "value": 33.3, "unit": "%"}, {"measurement": "inhibition at 20 µM", "setting": "PTHR2", "value": 30.4, "unit": "%"}, {"measurement": "inhibition at 20 µM", "setting": "EDNRA", "value": 30.7, "unit": "%"}, {"measurement": "inhibition at 20 µM", "setting": "HTR1F", "value": 41.7, "unit": "%"}, {"measurement": "inhibition at 20 µM", "setting": "OPRL1", "value": 5.4, "unit": "%"}, {"measurement": "inhibition at 20 µM", "setting": "GPR109B", "value": 36.1, "unit": "%"}, {"measurement": "inhibition at 20 µM", "setting": "CCR3", "value": 19.2, "unit": "%"}, {"measurement": "inhibition at 20 µM", "setting": "CCR8", "value": 43, "unit": "%"}, {"measurement": "inhibition at 20 µM", "setting": "NPFFR1", "value": 27.9, "unit": "%"}, {"measurement": "inhibition at 20 µM", "setting": "GPR109A", "value": 5.5, "unit": "%"}, {"measurement": "inhibition at 20 µM", "setting": "MTNR1A", "value": 20.2, "unit": "%"}, {"measurement": "inhibition at 20 µM", "setting": "LTB4R", "value": 4.6, "unit": "%"}, {"measurement": "inhibition at 20 µM", "setting": "MC3R", "value": 19.7, "unit": "%"}, {"measurement": "inhibition at 20 µM", "setting": "CHRM1", "value": 21.8, "unit": "%"}, {"measurement": "inhibition at 20 µM", "setting": "C5aR1", "value": 1.4, "unit": "%"}, {"measurement": "inhibition at 20 µM", "setting": "CHRM3", "value": 59.9, "unit": "%"}, {"measurement": "inhibition at 20 µM", "setting": "EDG7", "value": 38.6, "unit": "%"}, {"measurement": "inhibition at 20 µM", "setting": "P2RY1", "value": 5.5, "unit": "%"}, {"measurement": "inhibition at 20 µM", "setting": "TRHR", "value": 42.8, "unit": "%"}, {"measurement": "inhibition at 20 µM", "setting": "LHCGR", "value": 56.3, "unit": "%"}, {"measurement": "inhibition at 20 µM", "setting": "GIPR", "value": 23.3, "unit": "%"}, {"measurement": "inhibition at 20 µM", "setting": "HRH2", "value": 24.1, "unit": "%"}, {"measurement": "inhibition at 20 µM", "setting": "CRTH2", "value": 16.9, "unit": "%"}, {"measurement": "inhibition at 20 µM", "setting": "RXFP3", "value": 32.8, "unit": "%"}, {"measurement": "inhibition at 20 µM", "setting": "GLP2R", "value": 20.4, "unit": "%"}, {"measurement": "inhibition at 20 µM", "setting": "HTR1E", "value": 26.8, "unit": "%"}, {"measurement": "inhibition at 20 µM", "setting": "SSTR1", "value": 38.2, "unit": "%"}, {"measurement": "inhibition at 20 µM", "setting": "EDNRB", "value": 23, "unit": "%"}, {"measurement": "inhibition at 20 µM", "setting": "ADRB1", "value": 52.7, "unit": "%"}, {"measurement": "inhibition at 20 µM", "setting": "NTSR1", "value": 18.8, "unit": "%"}, {"measurement": "inhibition at 20 µM", "setting": "DRD5", "value": 2.7, "unit": "%"}, {"measurement": "inhibition at 20 µM", "setting": "CRHR2", "value": 12, "unit": "%"}, {"measurement": "inhibition at 20 µM", "setting": "CXCR2", "value": 20.5, "unit": "%"}, {"measurement": "inhibition at 20 µM", "setting": "HCRTR1", "value": 44.9, "unit": "%"}, {"measurement": "inhibition at 20 µM", "setting": "CCR5", "value": 14.7, "unit": "%"}, {"measurement": "inhibition at 20 µM", "setting": "MCHR2", "value": 21.4, "unit": "%"}, {"measurement": "inhibition at 20 µM", "setting": "PTGER4", "value": 36.5, "unit": "%"}, {"measurement": "inhibition at 20 µM", "setting": "GHSR", "value": 30.8, "unit": "%"}, {"measurement": "inhibition at 20 µM", "setting": "GPR92", "value": 56.5, "unit": "%"}, {"measurement": "inhibition at 20 µM", "setting": "CCR1", "value": 65.7, "unit": "%"}, {"measurement": "inhibition at 20 µM", "setting": "CALCRL-RAMP3", "value": 19.3, "unit": "%"}, {"measurement": "inhibition at 20 µM", "setting": "CALCR-RAMP2", "value": 58.6, "unit": "%"}, {"measurement": "inhibition at 20 µM", "setting": "PTAFR", "value": 14.3, "unit": "%"}]}]}
